{"source": "patent US9468643B2", "about": "“PDE5 inhibitor compositions and methods for immunotherapy” (The Johns Hopkins University, priority 2005, dated 2016)", "key": {"tumor": {"system": "tumor", "conditions": "cited from earlier work; for anti-tumor efficacy as single agent: used alone; for efficacy of antitumor vaccines when used as adjuvant: with vaccines"}, "[1]": {"conditions": "human, in vivo, cited from earlier work"}, "[2]": {"system": "CT26-WT or C26GM colon carcinoma", "experiment": "Tumor outgrowth after s.c. challenge with CT26-WT or C26GM", "assay_type": "in vivo, mice (BALB/c)", "conditions": "for anti-tumor efficacy in immune deficient Rag-/- mice: BALB/c Rag-/- mice; for tumor outgrowth: Balb/c mice, CT26-WT or C26GM, sildenafil 20 mg/kg/day, tadalafil 2 mg/kg/day ip, treatment alone"}, "[3]": {"system": "tumor infiltrating CD8+ / CD4+ T cells", "experiment": "Tumor-infiltrating lymphocyte number and activation in sildenafil-treated tumor-bearing mice", "assay_type": "in vivo, mice (BALB/c)"}, "[4]": {"system": "tumor-derived CD11b+ MSCs / antigen-specific T cells", "experiment": "MSC suppressive assay (CFSE dilution of antigen-specific T cells admixed with CD11b+ MSCs)", "assay_type": "cell-based, mice", "conditions": "sildenafil 50 μg/ml"}, "[5]": {"system": "PBLs (CD4+ and CD8+ T cells)", "experiment": "Proliferation assay of PBLs stimulated with anti-CD3/CD28 antibody-coated beads", "assay_type": "cell-based, human"}, "C26GM colon carcinoma [6]": {"system": "C26GM colon carcinoma", "experiment": "C26GM tumor outgrowth with sildenafil and anti-CD8 depleting antibody", "assay_type": "in vivo, mice (BALB/c)"}, "purified CD11b+ MSCs": {"system": "purified CD11b+ MSCs", "experiment": "IL4Rα expression on purified CD11b+ MSCs cultured with sildenafil", "assay_type": "cell-based, mice", "conditions": "for IL4Rα expression in cultured MSCs: sildenafil 50 μg/ml in culture; for IFN-γ mediated IL4Rα up-regulation in cultured MSCs: sildenafil 50 μg/ml, IFN-γ 25 ng/ml added on day 2"}, "C26GM colon carcinoma [7]": {"system": "C26GM colon carcinoma", "experiment": "Adoptive cell transfer (ACT) with sildenafil in C26GM-bearing mice, tumor size", "assay_type": "in vivo, mice (BALB/c)"}, "[8]": {"system": "tumor-associated MSCs (CD11b+ cells)", "experiment": "In vivo sildenafil treatment of tumor-bearing mice; analysis of purified tumor-associated CD11b+ MSCs (cGMP EIA, Western blot, NO, arginase, IL4Rα flow cytometry)", "set-up": "species or system mice (BALB/c)", "conditions": "sildenafil 20 mg/kg/day in vivo"}}, "note": "Entries after “also recorded” stand apart in the source; their conditions may differ. Read-outs that look alike come from different tables or passages of the source."}
{"smiles": "CC(=O)Oc1ccccc1C(=O)Oc1cccc(CO[N+](=O)[O-])c1", "note": "[nitroaspirin]", "values": [{"measurement": "anti-tumor efficacy as single agent", "setting": "tumor", "result": "no anti-tumor efficacy when used alone"}, {"measurement": "anti-tumor efficacy as single agent", "setting": "tumor; listed as nitro-aspirin", "result": "ineffective as a single agent"}, {"measurement": "efficacy of antitumor vaccines when used as adjuvant", "setting": "tumor", "result": "enhanced the preventive and therapeutic efficacy of antitumor vaccines"}, {"measurement": "efficacy of antitumor vaccines when used as adjuvant", "setting": "tumor; listed as nitro-aspirin", "result": "augmented the anti-tumor efficacy of vaccines on established tumors"}]}
{"smiles": "CN1CC(=O)N2[C@H](c3ccc4c(c3)OCO4)c3[nH]c4ccccc4c3C[C@@H]2C1=O", "note": "[tadalafil]", "values": [{"measurement": "apparent oral clearance (CL/F)", "setting": "[1]; po", "result": 2.48, "unit": "L/h"}, {"measurement": "time of peak plasma concentration post-dose", "setting": "[1]; po", "result": "two"}, {"measurement": "mean elimination half-life", "setting": "[1]", "result": "about 17.5 h"}, {"measurement": "anti-tumor efficacy in immune deficient Rag-/- mice", "setting": "[2]", "result": "lack of anti-tumor efficacy"}, {"measurement": "tumor outgrowth", "setting": "[2]", "result": "significantly delayed tumor outgrowth"}]}
{"smiles": "CCCc1nn(C)c2c(=O)[nH]c(-c3cc(S(=O)(=O)N4CCN(C)CC4)ccc3OCC)nc12", "note": "[sildenafil]", "values": [{"measurement": "IL-2 production (GFP) by adoptively transferred vaccine-primed CD8+ T cells in the tumor", "setting": "[3]; BALB/c-IL-2p/GFP splenocytes, sildenafil for 9 days", "result": "activated in the tumor microenvironment only with PDE5 inhibition"}, {"measurement": "CD4+ T cell tumor infiltration", "setting": "[3]; C26GM, day 9, flow cytometry", "result": "no increase in CD4^+ T cells"}, {"measurement": "CD8+ T cell tumor infiltration", "setting": "[3]; C26GM, day 9, flow cytometry", "result": "increase in intratumoral CD8^+ T cell infiltration"}, {"measurement": "activation of tumor-infiltrating CD8+ T cells (CD69 and CD25)", "setting": "[3]; C26GM, day 9, flow cytometry", "result": "increased the percentage of activated T cells; also recorded: significantly activated the tumor-infiltrating CD8^+ T cells"}, {"measurement": "CD8+ T cell tumor infiltration", "setting": "[3]; C26GM, day 9, flow cytometry, listed as Sildenafil", "result": "greater CD8^+ tumor infiltration"}, {"measurement": "intratumoral cellular infiltration (hematoxylin-eosin staining)", "setting": "[3]; CT26WT, day 15, sildenafil 20 mg/kg/day, vs untreated controls", "result": "greater intratumoral cellular infiltration"}, {"measurement": "tumor-infiltrating CD8+ cells specific for AH1 (tetramer positive)", "setting": "[3]; sildenafil-treated group, n=3, untreated 1.19±1.180", "result": "9.08%±0.905"}, {"measurement": "proliferation (responsiveness) of HA-specific CD4+ and CD8+ T cells in presence of tumor-derived MSCs", "setting": "[4]; BALB/c, C26GM-derived CD11b+ MSCs", "result": "almost completely restored"}, {"measurement": "suppression of OVA-specific CD4+ T cells by MSCs from NOS2+/+ mice", "setting": "[4]; C57Bl/6 NOS2+/+, B16GM melanoma", "result": "reversed MSC suppression"}, {"measurement": "responsiveness of OVA-specific CD4+ T cells with MSCs from NOS2-/- mice", "setting": "[4]; C57Bl/6 NOS2-/-, B16GM melanoma", "result": "did not augment T cell responsiveness"}, {"measurement": "T cell function in the groups lacking CD11b cells", "setting": "[4]; no MSCs added", "result": "absence of a sildenafil-mediated enhancement in T cell function"}, {"measurement": "anti-tumor efficacy in immune deficient Rag-/- mice", "setting": "[2]", "result": "lack of anti-tumor efficacy"}, {"measurement": "tumor outgrowth", "setting": "[2]", "result": "significantly delayed tumor outgrowth"}, {"measurement": "proliferation of isolated CD3+ T cells", "setting": "[5]; data not shown", "result": "unable to increase T cell proliferation"}, {"measurement": "CD4+ and CD8+ proliferation of PBLs from head and neck cancer and multiple myeloma patients", "setting": "[5]; sildenafil 50 μg/ml, 5 days", "result": "restore CD3/CD28-stimulated proliferation of PBLs; also recorded: significantly restored CD4^+ and CD8^+ proliferation in all the examined patients"}, {"measurement": "proliferation of PBLs from healthy donors", "setting": "[5]; sildenafil 50 μg/ml, 5 days", "result": "no effect on PBLs from healthy donors"}, {"measurement": "tumor outgrowth effect of sildenafil with anti-CD8 depleting antibody", "setting": "C26GM colon carcinoma [6]; anti-CD8 clone 2.43 on days 0, 2, 4, 6", "result": "completely abolished by CD8^+ depletion"}, {"measurement": "tumor outgrowth", "setting": "C26GM colon carcinoma [6]; sildenafil alone", "result": "statistically significant reduction in tumor outgrowth"}, {"measurement": "IL4Rα expression in cultured MSCs", "setting": "purified CD11b+ MSCs", "result": "significantly reduced"}, {"measurement": "IL4Rα expression in cultured MSCs", "setting": "purified CD11b+ MSCs; listed as Sildenafil", "result": "down-regulates IL4Rα in cultured MSCs"}, {"measurement": "IFN-γ mediated IL4Rα up-regulation in cultured MSCs", "setting": "purified CD11b+ MSCs", "result": "significantly reduced"}, {"measurement": "IFN-γ mediated IL4Rα up-regulation in cultured MSCs", "setting": "purified CD11b+ MSCs; listed as Sildenafil", "result": "prevents IFN-γ mediated IL4Rα up-regulation"}, {"measurement": "tumor outgrowth, sildenafil without adoptive transfer", "setting": "C26GM colon carcinoma [7]; sildenafil 20 mg/kg/day in drinking water", "result": "statistically significant reduction in tumor outgrowth"}, {"measurement": "anti-tumor efficacy, sildenafil coupled with adoptive immunotherapy (ACT)", "setting": "C26GM colon carcinoma [7]; sildenafil 20 mg/kg/day plus 20×10^6 C26GM-primed splenocytes", "result": "greatest anti-tumor efficacy"}, {"measurement": "NO production by intratumoral MSCs", "setting": "[8]; NO3-NO2 in supernatant", "result": "lower NO production"}, {"measurement": "NOS2 expression in intratumoral MSCs", "setting": "[8]; Western blot", "result": "down-regulation of NOS2"}, {"measurement": "Arg-1 expression and activity in intratumoral MSCs", "setting": "[8]; Western blot and arginase assay", "result": "down-regulated Arg-1"}, {"measurement": "intracellular cGMP levels in intratumoral MSCs", "setting": "[8]; competitive enzyme immune assay, vs control group", "result": "higher intracellular cGMP levels than the control group"}, {"measurement": "intracellular cGMP in the non-MSC population", "setting": "[8]; data not shown", "result": "No significant differences"}, {"measurement": "IL4Rα expression on intratumoral MSCs", "setting": "[8]; flow cytometry", "result": "significantly reduced IL4Rα expression"}]}
